# Active and inactive are the calls of the source.
# Legend:
# [1] = target: Tyrosine-protein kinase JAK2 (Homo sapiens, UniProt O60674); assay type: functional;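 further: JAK2 tested as one member of a kinase panel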
# [2] = target: Serine/threonine-protein kinase Chk1 (Homo sapiens, UniProt O14757); assay type: functional;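 further: measured as one member of a kinome-wide kinase profiling panel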
# Melanocortin receptor 4 = Melanocortin receptor 4 (Homo sapiens, UniProt P32245); test: inhibitors of MC4R cAMP signaling – cell-based, TR-FRET, biased antagonists, dose response (AID 602298); assay type: functional;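 further: antagonist potency against agonist-stimulated cAMP production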
# [3] = target: 26S proteasome non-ATPase regulatory subunit 14 (Homo sapiens, UniProt O00487); test: inhibition of proteasome subunit RPN11 – biochemical, fluorescence polarization, uHTS hits, confirmation (AID 602368); assay type: functional
# [4] = target: 72 kDa type IV collagenase (Homo sapiens, UniProt P08253); test: Dose Response validation of uHTS RPN11 inhibitor hits using a MMP-2 Fluorescence assay.; assay type: functional
# [5] = cAMP pathway inhibition in counterscreen cell line – TR-FRET cAMP detection, counter-screen for MC4R biased antagonist project, dose response (AID 602305); assay type: functional, cell-based;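 further: U2OS cells stimulated with forskolin near its EC80 as the cAMP inducer; potency is for inhibition of forskolin-stimulated cAMP signaling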
# Prothrombin = Prothrombin (Bos taurus, UniProt P00735); test: thrombin protease inhibitors – biochemical, fluorescence polarization, uHTS hits, dose response (AID 602369); assay type: functional
# [6] = target: Disintegrin and metalloproteinase domain-containing protein 17 (Homo sapiens, UniProt P78536); test: exosite inhibitors of ADAM17, dose response, biochemical (AID 743260)
# [7] = inhibition of ADAM10 peptide cleavage – biochemical, FRET peptide substrate, recombinant human ADAM10, selectivity assay for ADAM17 exosite inhibitor project, dose response (AID 743259);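 further: ADAM10 enzyme cleaving a FRET peptide substrate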
# [8] = target: Dual specificity mitogen-activated protein kinase kinase 1 (Homo sapiens, UniProt Q02750); test: Navigating the Kinome. Panel member name: MAP2K1; assay type: functional
# [9] = target: 5'-AMP-activated protein kinase catalytic subunit alpha-1 (Homo sapiens, UniProt Q13131); assay type: functional
# [10] = target: Tyrosine-protein kinase BTK (Homo sapiens, UniProt Q06187); assay type: functional
# [11] = target: Tyrosine-protein kinase Fer (Homo sapiens, UniProt P16591); assay type: functional;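 further: FER tested as one member of a kinome panel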
# [12] = target: STE20-like serine/threonine-protein kinase (Homo sapiens, UniProt Q9H2G2); assay type: functional
# [13] = target: Fibroblast growth factor receptor 3 (Homo sapiens, UniProt P22607); assay type: functional
# [14] = target: Dual specificity mitogen-activated protein kinase kinase 2 (Homo sapiens, UniProt P36507); test: Navigating the Kinome. Panel member name: MAP2K2; assay type: functional
# [15] = blockers of SFLLRN-triggered platelet ATP secretion – cell-based, human platelets, luminescence, dry powder, dose response (AID 493100); assay type: functional
# [16] = Luminescence Cell-Based Dose Response Follow up to Identify Inhibitors of Platelet Dense Granule Release. [Related pubchem assays (depositor defined):AID1663, AID1678, AID2398]; assay type: functional
# [17] = target: Beta-adrenergic receptor kinase 1 (Homo sapiens, UniProt P25098); test: aptamer displacement from bead-bound GRK2 – biochemical, cherry pick 1, bead flow cytometry, dose response (AID 504500)
# [18] = target: T1, Carboxy-terminal domain RNA polymerase II polypeptide A small phosphatase 1 (Homo sapiens, UniProt Q9GZU7); test: CTDSP1 inhibitors, concentration-response, biochemical, absorbance readout, ultra-high-throughput screen actives (AID 540297); assay type: functional
# T1 sequence (Q9GZU7 whole entry): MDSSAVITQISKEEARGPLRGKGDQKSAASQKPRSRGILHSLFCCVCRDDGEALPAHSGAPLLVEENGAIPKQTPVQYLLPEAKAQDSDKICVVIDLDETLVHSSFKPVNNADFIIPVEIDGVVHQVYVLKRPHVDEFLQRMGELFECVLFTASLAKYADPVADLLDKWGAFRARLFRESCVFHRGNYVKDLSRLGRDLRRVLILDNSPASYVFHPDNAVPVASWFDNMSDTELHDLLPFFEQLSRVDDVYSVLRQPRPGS
# [19] = target: T2, High affinity choline transporter 1 (Homo sapiens, UniProt Q9GZV3); test: human choline transporter blockers, potency – cell-based, 5-point CRC, membrane potential dye, dose response (AID 504840); assay type: functional
# [20] = target: T2, High affinity choline transporter 1; test: human choline transporter blockers, potency – cell-based, 10-point CRC, membrane potential dye, dose response (AID 588401); assay type: functional;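 further: membrane potential dye fluorescence of choline-evoked depolarization via CHT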
# [21] = target: T3, V-type proton ATPase subunit c' (Saccharomyces cerevisiae S288c, UniProt P32842); test: Dose Response with BCECF Assay for V-ATPase inhibitors that increase vacuolar pH, Powder Set 1.; assay type: functional; settings: read-out: EC50_MICROM
# [22] = target: T3, V-type proton ATPase subunit c'; test: Dose Response of Small Molecules that Regulate V-ATPase Proton Transport in Yeast using pHLuorin, Powder Set1.; assay type: functional; settings: read-out: EC50_MICROM
# Phospholipase D1 = Phospholipase D1 (Homo sapiens, UniProt Q13393); test: cellular phospholipase D1 inhibition IC50 – cell-based, dose response (AID 602151); assay type: functional;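 further: cellular PLD1 assay in Calu-1 cells stimulated with PMA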
# Phospholipase D2 = Phospholipase D2 (Homo sapiens, UniProt O14939); test: cellular phospholipase D2 inhibition IC50 – cell-based, dose response (AID 602147); assay type: functional;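 further: cellular assay in HEK293 cells overexpressing GFP-tagged PLD2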
# [23] = target: Multidrug resistance protein CDR2 (Candida albicans (strain SC5314 / ATCC MYA-2876) (Yeast), UniProt P78595); test: inhibition of Nile Red efflux via Candida CDR2 – S. cerevisiae AD1-8u, singleplex, Cherry Pick1 hits, dose response (AID 588604); assay type: functional
# [24] = system: Streptococcus sp. 'group A'; test: Streptococcus pyogenes SK(-)GAS viability under kanamycin – luminescence, BacTiterGlo, confirmation, counter-screen for streptokinase expression inhibitor project, dose response (AID 1900); assay type: functional, organism-based
# Streptokinase A = target: T4, Streptokinase A (Streptococcus pyogenes serotype M1, UniProt P10520); test: viability-normalized secreted streptokinase activity reduction – plasminogen activation absorbance, OD405, dose response (AID 1914); assay type: functional, Streptococcus pyogenes M1 GAS;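 further: secreted streptokinase activity via plasminogen activation per viability signal from cell pellet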
# T4 sequence (P10520 whole entry): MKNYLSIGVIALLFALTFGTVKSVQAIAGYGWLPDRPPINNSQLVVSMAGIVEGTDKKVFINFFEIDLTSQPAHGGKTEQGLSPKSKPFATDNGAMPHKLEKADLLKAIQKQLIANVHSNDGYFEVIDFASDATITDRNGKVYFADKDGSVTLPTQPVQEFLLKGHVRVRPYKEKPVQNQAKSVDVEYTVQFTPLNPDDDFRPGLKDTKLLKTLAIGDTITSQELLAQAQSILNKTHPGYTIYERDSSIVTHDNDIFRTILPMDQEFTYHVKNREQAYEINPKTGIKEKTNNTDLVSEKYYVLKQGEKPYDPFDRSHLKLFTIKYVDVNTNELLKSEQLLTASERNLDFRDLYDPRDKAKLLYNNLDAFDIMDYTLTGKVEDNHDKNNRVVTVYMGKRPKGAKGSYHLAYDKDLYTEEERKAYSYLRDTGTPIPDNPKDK
# NS3 = NS3 (Hepatitis C virus, UniProt A3EZJ3); test: PubChem AID 2173; set-up: species or system Hepacivirus hominis
# Streptococcus = test: GAS UMAA2166 growth inhibition – luminescence, BacTiterGlo, counter-screen for streptokinase expression inhibitor project, dose response (AID 1915); assay type: functional, organism-based;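 further: potency for reduction of bacterial viability or growth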
# DNA topoisomerase = DNA topoisomerase (Yersinia pestis, UniProt A0A2S9PM60); test: Yersinia topoisomerase I cleavage product accumulation – biochemical, cherry-pick, dose response (AID 588525)
# Vero = test: viability of Vero cells under compound – cytotoxicity control for flavivirus capping enzyme inhibitors (AID 588742); assay type: functional; settings: Chlorocebus sabaeus
# Genome polyprotein = Genome polyprotein (dengue virus type 2, UniProt P29990); test: flavivirus cap methylation enzyme inhibition – biochemical, confirmation dose response, primary screen (AID 588689); assay type: functional
# [25] = target: Sphingosine 1-phosphate receptor 2 (Homo sapiens, UniProt O95136); test: Late-stage fluorescence-based dose-response cell-based counterscreen assay to identify agonists of the Sphingosine 1-Phosphate Receptor 3 (S1P3): Sphingosine 1-Phosphate Receptor 2 (S1P2) agonist assay.; assay type: functional
# [26] = target: T5, Sphingosine 1-phosphate receptor 4 (Homo sapiens, UniProt O95977); test: Late-stage fluorescence-based dose-response cell-based counterscreen assay to identify agonists of the Sphingosine 1-Phosphate Receptor 3 (S1P3): Sphingosine 1-Phosphate Receptor 4 (S1P4) agonist assay.; assay type: functional
# T5 sequence (O95977 whole entry): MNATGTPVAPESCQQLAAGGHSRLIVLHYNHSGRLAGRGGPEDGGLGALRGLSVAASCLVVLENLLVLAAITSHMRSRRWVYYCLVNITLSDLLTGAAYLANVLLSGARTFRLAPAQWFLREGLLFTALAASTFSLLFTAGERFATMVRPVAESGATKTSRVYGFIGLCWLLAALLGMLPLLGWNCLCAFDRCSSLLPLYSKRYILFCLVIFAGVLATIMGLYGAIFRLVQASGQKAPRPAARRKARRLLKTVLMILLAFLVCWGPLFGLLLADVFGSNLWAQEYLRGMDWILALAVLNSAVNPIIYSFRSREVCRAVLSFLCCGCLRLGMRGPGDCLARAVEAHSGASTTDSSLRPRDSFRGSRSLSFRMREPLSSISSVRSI
# Large T antigen = Large T antigen (Simian virus 40, UniProt P03070); assay type: functional, Betapolyomavirus macacae;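 further: Confirmatory-stage PubChem screen for compounds that inhibit SV40 T antigen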
# [27] = target: T6, DNA dC->dU-editing enzyme APOBEC-3A (Homo sapiens, UniProt P31941); test: A3A deaminase inhibition for selectivity – biochemical, dose response (AID 504722); assay type: functional
# [28] = target: T7, DNA dC->dU-editing enzyme APOBEC-3G (Homo sapiens, UniProt Q9HC16); test: Dose Response confirmation of small molecule APOBEC3G DNA Deaminase Inhibitors via a fluorescence-based single-stranded DNA deaminase assay. [Related pubchem assays (depositor defined):AID493012, AID493028]; assay type: functional
# [29] = target: T6, DNA dC->dU-editing enzyme APOBEC-3A; test: SAR analysis of small molecule inhibitors of APOBEC3A DNA Deaminase via a fluorescence-based single-stranded DNA deaminase assay - Set 2.; assay type: functional; settings: read-out: IC50_Mean
# [30] = target: T7, DNA dC->dU-editing enzyme APOBEC-3G; test: SAR analysis of small molecule inhibitors of APOBEC3G DNA Deaminase via a fluorescence-based single-stranded DNA deaminase assay - Set 2.; assay type: functional; settings: read-out: IC50_Mean
# T7 sequence (Q9HC16 whole entry): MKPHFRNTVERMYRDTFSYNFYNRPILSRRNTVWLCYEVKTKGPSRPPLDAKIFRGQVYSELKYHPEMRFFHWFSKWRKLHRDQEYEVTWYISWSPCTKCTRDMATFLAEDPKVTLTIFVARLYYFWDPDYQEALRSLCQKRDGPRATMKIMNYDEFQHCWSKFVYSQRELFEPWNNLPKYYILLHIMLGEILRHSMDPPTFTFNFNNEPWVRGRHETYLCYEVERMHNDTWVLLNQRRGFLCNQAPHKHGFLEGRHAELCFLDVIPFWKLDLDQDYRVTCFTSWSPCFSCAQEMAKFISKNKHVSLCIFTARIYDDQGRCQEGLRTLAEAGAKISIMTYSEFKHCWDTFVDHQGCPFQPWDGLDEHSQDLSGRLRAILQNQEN
# T3 sequence (P32842 whole entry): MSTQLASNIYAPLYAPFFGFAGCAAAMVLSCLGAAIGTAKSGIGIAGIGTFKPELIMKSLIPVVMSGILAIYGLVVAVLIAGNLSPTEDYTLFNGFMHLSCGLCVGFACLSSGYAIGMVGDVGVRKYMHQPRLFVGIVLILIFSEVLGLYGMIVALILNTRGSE
# T2 sequence (Q9GZV3 whole entry): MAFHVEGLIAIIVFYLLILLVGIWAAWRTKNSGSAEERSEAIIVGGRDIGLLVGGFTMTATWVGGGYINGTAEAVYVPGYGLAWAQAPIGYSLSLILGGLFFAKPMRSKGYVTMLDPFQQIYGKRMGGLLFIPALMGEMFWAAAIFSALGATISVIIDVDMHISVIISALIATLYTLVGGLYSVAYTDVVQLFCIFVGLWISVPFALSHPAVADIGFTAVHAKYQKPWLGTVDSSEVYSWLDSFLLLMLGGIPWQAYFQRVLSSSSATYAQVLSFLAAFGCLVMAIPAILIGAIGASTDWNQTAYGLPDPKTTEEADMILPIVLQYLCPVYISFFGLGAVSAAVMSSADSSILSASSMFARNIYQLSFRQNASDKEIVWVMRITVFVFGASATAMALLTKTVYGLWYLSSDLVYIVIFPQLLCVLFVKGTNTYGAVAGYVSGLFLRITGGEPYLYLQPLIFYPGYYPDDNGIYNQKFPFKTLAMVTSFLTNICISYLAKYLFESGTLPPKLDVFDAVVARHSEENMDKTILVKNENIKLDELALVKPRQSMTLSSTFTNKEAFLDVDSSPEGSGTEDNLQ
# T6 sequence (P31941 whole entry): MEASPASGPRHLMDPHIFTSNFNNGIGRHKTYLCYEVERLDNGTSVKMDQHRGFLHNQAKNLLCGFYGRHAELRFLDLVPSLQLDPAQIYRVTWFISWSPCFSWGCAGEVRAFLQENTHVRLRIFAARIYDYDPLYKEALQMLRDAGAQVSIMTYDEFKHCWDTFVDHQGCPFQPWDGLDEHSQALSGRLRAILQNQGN
# Phospholipase D1, sequence (Q13393 whole entry): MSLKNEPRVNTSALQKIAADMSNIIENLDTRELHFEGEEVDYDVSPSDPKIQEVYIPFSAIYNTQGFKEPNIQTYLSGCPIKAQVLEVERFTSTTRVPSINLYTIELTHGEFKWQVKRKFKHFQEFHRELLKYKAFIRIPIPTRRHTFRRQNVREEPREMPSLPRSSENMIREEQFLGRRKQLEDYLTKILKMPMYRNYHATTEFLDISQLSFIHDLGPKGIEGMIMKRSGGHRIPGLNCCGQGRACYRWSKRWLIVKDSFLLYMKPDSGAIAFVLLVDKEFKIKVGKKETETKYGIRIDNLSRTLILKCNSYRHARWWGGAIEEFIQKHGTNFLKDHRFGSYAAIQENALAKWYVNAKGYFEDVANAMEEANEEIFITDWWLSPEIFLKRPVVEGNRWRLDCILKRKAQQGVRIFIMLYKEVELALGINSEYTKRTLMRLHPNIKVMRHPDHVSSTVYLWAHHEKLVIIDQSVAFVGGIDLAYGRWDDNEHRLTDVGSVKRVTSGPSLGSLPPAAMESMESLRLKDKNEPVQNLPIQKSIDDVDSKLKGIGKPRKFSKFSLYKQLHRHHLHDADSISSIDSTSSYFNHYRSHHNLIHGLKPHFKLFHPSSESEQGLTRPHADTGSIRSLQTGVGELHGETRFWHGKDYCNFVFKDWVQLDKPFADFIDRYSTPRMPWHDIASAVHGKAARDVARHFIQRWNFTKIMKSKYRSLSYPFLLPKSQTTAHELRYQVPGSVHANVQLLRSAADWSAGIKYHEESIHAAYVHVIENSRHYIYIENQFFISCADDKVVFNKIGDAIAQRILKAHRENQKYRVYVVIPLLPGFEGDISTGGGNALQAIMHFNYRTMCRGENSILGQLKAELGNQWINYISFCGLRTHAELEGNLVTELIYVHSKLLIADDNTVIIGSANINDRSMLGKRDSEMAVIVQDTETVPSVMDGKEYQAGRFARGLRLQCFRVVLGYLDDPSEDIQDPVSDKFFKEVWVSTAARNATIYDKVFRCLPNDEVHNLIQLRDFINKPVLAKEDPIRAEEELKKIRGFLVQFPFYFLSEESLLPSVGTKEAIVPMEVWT
# Sphingosine 1-phosphate receptor 2, sequence (O95136 whole entry): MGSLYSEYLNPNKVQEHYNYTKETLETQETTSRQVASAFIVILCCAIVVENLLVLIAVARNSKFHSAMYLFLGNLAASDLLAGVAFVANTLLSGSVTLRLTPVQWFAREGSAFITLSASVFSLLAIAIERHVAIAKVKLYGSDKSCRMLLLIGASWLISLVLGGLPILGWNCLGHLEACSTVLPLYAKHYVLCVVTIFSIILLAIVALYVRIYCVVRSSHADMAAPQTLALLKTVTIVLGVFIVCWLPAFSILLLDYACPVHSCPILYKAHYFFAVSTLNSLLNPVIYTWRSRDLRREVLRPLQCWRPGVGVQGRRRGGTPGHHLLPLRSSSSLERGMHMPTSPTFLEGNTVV
# Tyrosine-protein kinase Fer, sequence (P16591 whole entry): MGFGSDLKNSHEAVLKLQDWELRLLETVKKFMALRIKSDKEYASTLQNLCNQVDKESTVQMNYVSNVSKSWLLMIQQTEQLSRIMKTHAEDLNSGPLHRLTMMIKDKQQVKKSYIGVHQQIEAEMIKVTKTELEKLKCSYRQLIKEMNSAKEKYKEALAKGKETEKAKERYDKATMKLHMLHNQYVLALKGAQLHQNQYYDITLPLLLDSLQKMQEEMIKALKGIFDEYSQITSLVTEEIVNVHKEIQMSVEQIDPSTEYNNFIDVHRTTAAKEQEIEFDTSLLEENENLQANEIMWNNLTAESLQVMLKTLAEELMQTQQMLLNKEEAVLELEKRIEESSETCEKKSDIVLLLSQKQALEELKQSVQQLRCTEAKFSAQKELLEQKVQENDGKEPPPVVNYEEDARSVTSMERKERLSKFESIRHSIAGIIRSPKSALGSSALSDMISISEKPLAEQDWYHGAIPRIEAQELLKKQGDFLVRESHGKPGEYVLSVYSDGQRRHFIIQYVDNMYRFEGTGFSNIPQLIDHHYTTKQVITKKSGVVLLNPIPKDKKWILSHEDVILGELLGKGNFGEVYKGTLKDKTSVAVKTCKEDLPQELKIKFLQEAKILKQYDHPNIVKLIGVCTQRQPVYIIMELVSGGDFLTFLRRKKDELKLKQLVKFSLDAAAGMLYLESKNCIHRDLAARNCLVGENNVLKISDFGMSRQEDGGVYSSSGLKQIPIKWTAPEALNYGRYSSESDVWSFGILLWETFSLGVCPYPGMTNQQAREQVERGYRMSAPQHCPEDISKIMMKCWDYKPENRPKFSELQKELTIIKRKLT
# Fibroblast growth factor receptor 3, sequence (P22607 whole entry): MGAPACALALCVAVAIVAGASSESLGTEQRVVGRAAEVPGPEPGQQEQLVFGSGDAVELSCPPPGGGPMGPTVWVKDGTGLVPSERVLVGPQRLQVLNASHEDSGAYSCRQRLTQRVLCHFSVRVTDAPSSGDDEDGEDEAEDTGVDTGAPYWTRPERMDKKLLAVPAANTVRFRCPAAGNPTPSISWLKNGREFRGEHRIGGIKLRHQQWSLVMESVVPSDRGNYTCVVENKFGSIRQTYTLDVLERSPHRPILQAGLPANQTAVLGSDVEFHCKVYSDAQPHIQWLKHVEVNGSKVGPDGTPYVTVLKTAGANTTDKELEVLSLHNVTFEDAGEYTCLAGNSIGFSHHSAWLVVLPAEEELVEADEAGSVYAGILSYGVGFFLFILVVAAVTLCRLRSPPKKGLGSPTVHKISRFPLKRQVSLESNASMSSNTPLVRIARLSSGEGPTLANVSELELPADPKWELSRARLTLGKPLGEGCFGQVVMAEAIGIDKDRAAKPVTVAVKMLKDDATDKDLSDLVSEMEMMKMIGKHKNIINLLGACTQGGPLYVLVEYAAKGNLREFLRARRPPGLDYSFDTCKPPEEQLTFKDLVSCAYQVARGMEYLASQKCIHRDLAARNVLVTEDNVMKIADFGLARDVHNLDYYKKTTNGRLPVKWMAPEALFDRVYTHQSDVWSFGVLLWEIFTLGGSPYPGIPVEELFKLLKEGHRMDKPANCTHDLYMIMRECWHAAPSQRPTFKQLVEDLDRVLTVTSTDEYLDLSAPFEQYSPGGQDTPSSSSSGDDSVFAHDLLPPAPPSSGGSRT
# 26S proteasome non-ATPase regulatory subunit 14, sequence (O00487 whole entry): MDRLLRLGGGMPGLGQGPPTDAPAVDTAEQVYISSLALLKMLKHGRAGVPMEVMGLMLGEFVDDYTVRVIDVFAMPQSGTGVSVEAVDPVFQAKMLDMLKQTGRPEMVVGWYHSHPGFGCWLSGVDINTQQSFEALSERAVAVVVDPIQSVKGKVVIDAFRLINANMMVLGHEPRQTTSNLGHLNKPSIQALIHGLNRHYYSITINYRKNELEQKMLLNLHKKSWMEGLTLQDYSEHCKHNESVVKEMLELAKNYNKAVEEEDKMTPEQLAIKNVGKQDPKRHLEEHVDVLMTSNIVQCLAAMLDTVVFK
smiles,measurement,setting,value
COc1cc(OC)nc(N2Cc3ccccc3CC2C(=O)O)n1 (stereo unspecified),Ki,[1],2.51 µM (active)
same,Ki,[2],0.794 µM (active)
O=C(NN=Cc1ccc(N(CCCl)CCCl)cc1)C(=O)c1c[nH]c2ccccc12,IC50,Melanocortin receptor 4,> 64.6 µM (inactive)
same,IC50,[3],25.5 µM (active)
same,IC50,[4],> 100 µM (inactive)
same,IC50,[5],> 64.6 µM (inactive)
same,IC50,Prothrombin,45.1 µM (active)
same,IC50,[6],> 69.5 µM (inactive)
same,IC50,[7],> 69.5 µM (inactive)
Cc1cc(Nc2cc(N3CCN(C)CC3)nc(C=Cc3ccccc3)n2)n[nH]1,Ki,[8],0.501 µM (active)
same,Ki,[9],0.501 µM (active)
same,Ki,[10],0.501 µM (active)
same,Ki,[11],0.316 µM (active)
same,Ki,[12],0.501 µM (active)
same,Ki,[13],0.1 µM (active)
same,Ki,[14],0.316 µM (active)
Cc1ccc(-c2c(C#N)c(N)n(-c3ccccc3C)c(=O)c2C#N)cc1,AC50,[15],12.6 µM (active)
same,EC50,[16],2.03 µM (active)
O=C(O)C1CC(=O)N(c2ccc3c(c2)OCCO3)C1 (stereo unspecified),EC50,[17],30.9 µM (inactive)
same,IC50,[18],6.73 µM (active)
CCCCC1C(=O)CC[C@H]2[C@@H]1CC(=O)[C@@H]2C/C=C\CCCC(=O)O (stereo partly specified),IC50,[19],2.13 µM (active)
same,IC50,[20],2.38 µM (active)
O=C(c1ccc([N+](=O)[O-])o1)N1CCN(c2cccc(Cl)c2)CC1,EC50,[21],1.25 µM (active)
same,EC50,[22],12.4 µM (active)
Cn1c(=O)n(C2CCN(CCNC(=O)c3ccc4ccccc4c3)CC2)c2ccccc21,IC50,Phospholipase D1,1.5 µM (active)
same,IC50,Phospholipase D2,1.9 µM (active)
COc1ccc2c(-c3ccc(OCCN4CCOCC4)cc3)c(-c3ccccc3OC)sc2c1,EC50,[23],13.3 µM (active)
CCCOc1ccc(C(=O)C2=C(O)C(=O)N(c3ccccn3)C2c2ccc(OC)cc2)cc1C (stereo unspecified),EC50,[24],3.78 µM (active)
same,EC50,Streptokinase A,103 µM (active)
same,IC50,NS3,5.74 µM (active)
same,EC50,Streptococcus,38.6 µM (active)
same,AC50,DNA topoisomerase,5.07 µM (active)
same,CC50,Vero,> 40 µM (active)
same,IC50,Genome polyprotein,74.3 µM (active)
COc1ccc(-c2cc(C(=O)N(C3CCCCC3)C3CCCCC3)no2)cc1,EC50,[25],> 50 µM (inactive)
same,EC50,[26],> 50 µM (inactive)
CCCn1c(=O)c2ccccc2n2c(=S)[nH]nc12,IC50,Large T antigen,18.2 µM (active)
same,IC50,[27],> 100 µM (inactive)
same,IC50,[28],2.87 µM (active)
same,IC50,[29],> 99 µM (inactive)
same,IC50,[30],> 99 µM (inactive)

# — ChEMBL document CHEMBL1201862, “PubChem BioAssay data set” (2004)
